Measurements as given in patent publication US9884063B2, “Amido-substituted azole compounds” (Bayer Pharma Aktiengesellschaft, priority 2014, dated 2018).

Molecular target: T1, TNKS1 (Homo sapiens, UniProt O95271)
T1 sequence (O95271 1-1327): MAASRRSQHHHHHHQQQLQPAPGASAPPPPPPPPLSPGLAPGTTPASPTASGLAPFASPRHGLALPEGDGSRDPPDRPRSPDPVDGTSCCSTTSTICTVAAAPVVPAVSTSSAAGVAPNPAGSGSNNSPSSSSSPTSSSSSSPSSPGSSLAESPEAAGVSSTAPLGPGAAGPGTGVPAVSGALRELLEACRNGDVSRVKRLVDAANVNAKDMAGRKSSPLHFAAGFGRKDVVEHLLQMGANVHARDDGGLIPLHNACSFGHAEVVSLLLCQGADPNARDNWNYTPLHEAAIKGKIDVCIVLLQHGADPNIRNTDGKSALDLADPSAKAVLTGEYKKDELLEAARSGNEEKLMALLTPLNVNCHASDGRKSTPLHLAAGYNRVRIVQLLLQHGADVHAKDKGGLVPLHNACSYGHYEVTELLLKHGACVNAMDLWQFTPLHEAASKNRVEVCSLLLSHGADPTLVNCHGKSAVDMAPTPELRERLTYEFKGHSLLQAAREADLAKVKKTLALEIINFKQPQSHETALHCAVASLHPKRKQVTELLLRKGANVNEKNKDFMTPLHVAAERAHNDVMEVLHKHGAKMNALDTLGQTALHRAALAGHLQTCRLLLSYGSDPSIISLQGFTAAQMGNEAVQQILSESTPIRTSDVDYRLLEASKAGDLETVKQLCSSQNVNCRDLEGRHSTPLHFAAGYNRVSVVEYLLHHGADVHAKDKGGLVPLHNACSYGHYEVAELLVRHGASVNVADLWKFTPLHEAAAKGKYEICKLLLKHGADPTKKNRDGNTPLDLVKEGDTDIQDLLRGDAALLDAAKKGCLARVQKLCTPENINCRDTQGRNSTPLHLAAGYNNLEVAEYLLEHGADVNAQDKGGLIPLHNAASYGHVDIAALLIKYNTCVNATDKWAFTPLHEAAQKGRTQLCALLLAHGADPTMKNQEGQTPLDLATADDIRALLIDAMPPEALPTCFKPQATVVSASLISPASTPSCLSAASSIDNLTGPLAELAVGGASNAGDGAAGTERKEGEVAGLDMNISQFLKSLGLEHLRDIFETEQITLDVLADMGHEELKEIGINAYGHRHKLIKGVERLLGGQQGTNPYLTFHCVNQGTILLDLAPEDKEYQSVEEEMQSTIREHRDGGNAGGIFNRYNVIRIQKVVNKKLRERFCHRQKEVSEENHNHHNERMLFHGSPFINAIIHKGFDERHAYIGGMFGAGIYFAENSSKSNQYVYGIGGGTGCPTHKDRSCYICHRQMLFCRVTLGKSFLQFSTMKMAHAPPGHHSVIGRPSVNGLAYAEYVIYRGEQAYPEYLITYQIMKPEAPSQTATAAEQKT
Experiment: Modified TNKS1 Assay 3 (BPS kit #80573, biotin-NAD+, 96 well)
Type: biochemical
Details: human TNKS1, BPS kit #80573, 96 well
Outline: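 Chemiluminescent assay of TNKS1-catalysed ribosylation of a protein substrate with biotin-labelled NAD+, detected via streptavidin-HRP; run per kit protocol. Inhibition lowers the signal, and IC50 is the compound concentration halving the normalised readout.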

IC50: 40 nM
SMILES: O=C(Nc1ccc(NC(=O)c2[nH]cnc2C(=O)NCCN2CCCCC2)cn1)c1ccc(F)cc1Cl [Example 110, N^5-{6-[(2-chloro-4-fluorobenzoyl)amino]pyridin-3-yl}-N^4-[2-(piperidin-1-yl)ethyl]-1H-imidazole-4,5-dicarboxamide]
